The results in this text go back to US20080045547A1, “Salts And Co-Crystals of Pyrazolopyrimidine Compounds, Compositions Thereof And Methods For Their Production And Use” (priority 2006, published 2008).

“And” between values parts separate entries of the source, which are not always exact repeats. Equal entries are not always repeated. “Also recorded” adds a separate entry of the source. Structures can show the parent of a compound that is named as a salt.

Data set [1] is described as follows: Equilibrium aqueous solubility from solid. It counts as physicochemical. Conditions: H20, room temperature overnight; for solubility: water, thermodynamic from solid. On the procedure:
Samples of the ocinaplon salts shown above were evaluated for equilibrium aqueous solubility from solid. Duplicate samples of ocinaplon were accurately weighed and diluted to 1 ml with water to 6.83 mg/ml and 6.43 mg/ml. Duplicate samples of Ocinaplon di HCl salt were accurately weighed and diluted to 1 ml with water to 5.5 mg/ml and 6.0 mg/ml. Ocinaplon di HBr salt was accurately weighed and diluted to 1 ml with water to 6.1 mg/ml and 5.8 mg/ml. Ocinaplon disulfate salt was accurately weighed and diluted to 1 ml with water to 7.5 mg/ml and 6.5 mg/ml. Any change in pH of the water following sample addition was recorded. After equilibration at room temperature overnight the solutions were filtered and solute concentration determined by fast gradient HPLC with UV/VIS/MS detection with reference to 5, 10, 50, 100 and 250 μM analytical standards. Prior to sample filtration, filters were primed with 600 μl of sample to resolve potential adsorption problems. Both sample replicates were collected through the primed filter. Duplicate determinations were made in all cases.

A short description of data set [2]: Pharmacokinetics of different salt forms of ocinaplon after a single oral dose. It counts as in vivo. Particulars: male beagle dogs; for Tmax / half-life / AUC(0-inf) / AUC(0-t) / Cmax: dog, plasma; for AUC of ocinaplon relative to an equivalent amount of the free base / Cmax of ocinaplon relative to an equivalent amount of the free base / variability in plasma levels of ocinaplon compared to the free base / variability in the AUC (CV %) compared to the free base: oral 30 mg free base/kg; for AUC(0-inf) / AUC(0-t) / Cmax: male, beagle, po. On the procedure:
The test compounds were prepared in 0.5% methylcellulose. The target concentrations of the free base and HBr salt were 1.0 and 1.34 mg/mL (equivalent to 1 mg of the free base), respectively. The liquid suspensions were administered via oral gavage. Prior to removing the gavage tube, the tube was flushed with approximately 5 mL of water.
Blood (approximately 2 mL) was collected from a jugular vein via syringe and needle and transferred into tubes containing K2EDTA anticoagulant predose and at 0.5, 1, 2, 3, 4, 6, 8, 12, and 24 hours postdose. Blood was maintained on wet ice, in chilled Kryoracks, or at approximately 5° C. prior to centrifugation to obtain plasma. Centrifugation began within 1 hour of collection. Plasma was placed on dry ice prior to storage at approximately −70° C. Plasma samples, remaining test compounds, and remaining dose formulations were shipped on dry ice to the analysis site and stored at approximately −70° C. before and after analysis. Samples were analyzed using an LC/MS/MS method. Plasma concentration-time data for each dog and formulation were analyzed using a noncompartmental model assumption with WinNonlin, version 4.1 (Pharsight Corporation, Mountain View, Calif.). All calculations were based on the nominal times as actual sample collection times departed minimally from the schedule times.
The pharmacokinetic parameters of different pyrazolopyrimidine acid salts vary in an apparently salt and compound dependent fashion. This is illustrated by a comparison of the pharmacokinetic properties of different acid salts of the pyrazolopyrimidine, ocinaplon. This study was performed in a manner similar to the study described in Example 9 hereinabove. The concentrations of the HCl, HBr and disulfate salts of ocinaplon were 3.72 mg/mL, 4.61 mg/mL and 4.95 mg/mL, respectively. All concentrations were calculated to be 3.0 mg free base/mL; the dose volume was […]. […] […] These findings exemplify and underscore the differences in pharmacokinetic profiles among these three exemplary salts of ocinaplon.

Where [3] appears, read: 30 mg/kg, single oral dose 30 mg Base/kg, 0.5% methylcellulose suspension, mean (CV %), N = 5.
[4] abbreviates: single oral dose 50 mg/kg, 0.5% MC, mean (CV %).
Where [5] appears, read: 30 mg/kg, apparently scaled from 50 mg/kg, 0.5% MC.
[6] abbreviates: 50 mg/kg, single oral dose 50 mg/kg, 0.5% MC, mean (CV %).

Regarding `Cl.Cl.O=C(c1ccccn1)c1cnn2c(-c3ccncc3)ccnc12` [Ocinaplon di HCl salt], in data set [1], the solubility was 12600 µM and 4700 µg/mL. Also, in data set [2] (setting [3]), the Tmax was found to be 1.1 h, the half-life is 1.05 h, the AUC(0-inf) came to 57300 ng·h/mL and the AUC(0-t) was 57100 ng·h/mL. For the same compound, the peak concentration (Cmax) in data set [2] (setting [3]) worked out at 15000 ng/mL. Besides, in data set [2], the “AUC of ocinaplon relative to an equivalent amount of the free base” value is “almost twice as high”, the “Cmax of ocinaplon relative to an equivalent amount of the free base” value was “more than two-fold”, the “variability in plasma levels of ocinaplon compared to the free base” value is listed as “lower variability” and the “variability in the AUC (CV %) compared to the free base” value is given as “much less variability”.
As to `O=C(c1ccccn1)c1cnn2c(-c3ccncc3)ccnc12` [Ocinaplon Free base, pyridin-2-yl(7-(pyridin-4-yl)pyrazolo[1,5-a]pyrimidin-3-yl)methanone, reference compound], in data set [1], the “Equilibrium Aqueous Solubility from Solid” value was 0.4 mM and 0.1 mg/ml. Also, in data set [2] (setting [4]), the Tmax came to 1.8 h and the half-life is 1.61 h. In data set [2] (setting [5]), the total exposure AUC(0-inf) worked out at 37900 ng·h/mL, the AUC(0-t) stood at 37600 ng·h/mL and the Cmax is 6250 ng/mL. For the same compound, in data set [2] (setting [6]), the AUC(0-inf) turned out to be 63200 ng·h/mL, the AUC(0-t) stood at 62500 ng·h/mL and the Cmax was 10400 ng/mL.
With `Br.Br.O=C(c1ccccn1)c1cnn2c(-c3ccncc3)ccnc12` [Ocinaplon di HBr], the solubility in data set [1] is 11500 µM and 5300 µg/mL. Further, in data set [2] (setting [3]), the Tmax came out at 0.9 h, the half-life was 0.83 h, the AUC(0-inf) came to 38100 ng·h/mL and the Cmax was 13600 ng/mL. Moreover, in data set [2], the “AUC of ocinaplon relative to an equivalent amount of the free base” value is given as “did not differ”, the “Cmax of ocinaplon relative to an equivalent amount of the free base” value is given as “more than two-fold; also recorded: approximately twice”, the “variability in plasma levels of ocinaplon compared to the free base” value is recorded as “lower variability” and the “variability in the AUC (CV %) compared to the free base” value is on record as “dramatically less”. Besides, in data set [2] (30 mg Base/kg, single oral dose 30 mg Base/kg, 0.5% methylcellulose suspension, mean (CV %), N = 5), the area under the curve AUC(0-t) was found to be 38000 ng·h/mL.
Regarding `O=C(c1ccccn1)c1cnn2c(-c3ccncc3)ccnc12` [Ocinaplon disulfate salt], the “Equilibrium Aqueous Solubility from Solid” value in data set [1] is 10.6 mM and 5.3 mg/ml. Also, in data set [2] (setting [3]), the Tmax stood at 0.8 h, the half-life is 0.95 h, the AUC(0-inf) came out at 46400 ng·h/mL and the AUC(0-t) was 46300 ng·h/mL. In data set [2] (setting [3]), the peak concentration (Cmax) came to 14800 ng/mL. In data set [2], the “Cmax of ocinaplon relative to an equivalent amount of the free base” value is on record as “more than two-fold”.

One may read the solubility as the concentration that dissolves in the medium under given conditions. Read a high solubility as a readily soluble substance. The Tmax is the time from dosing to the highest level. One may read the half-life as the time needed for the level to fall by half in the phase considered. As a reminder, the AUC(0-inf) is total exposure, with the tail of the curve extrapolated. As usually defined, the AUC(0-t) is exposure summed from dosing to a finite time, without extrapolation to infinity. Broadly, the Cmax is the highest concentration seen after dosing.
